Patent publication US20210236784A1, “DEVICE FOR ORAL DELIVERY OF ACTIVE AGENTS” (Entrega Inc., priority 2015, published 2021)

Experiment: Surgical Bioavailability Assay
Type: in vivo
Settings: pig; octreotide; porcine surgical model, device/dosage form placed in the intestine (jejunum, ileum); from active agent levels in blood samples; FIG. 23
Description: To determine bioavailability, mucoadhesive devices according to aspects of the present disclosure, as well as comparative dosage forms, are tested by a surgical model (Surgical Bioavailability Assay).
Surgical Bioavailability Assay. In the Surgical Bioavailability Assay, a porcine model is used, in which the animals undergo open surgery such that devices and/or dosage forms to be tested can be placed at regions of the intestine of interest, such as the jejunum and ileum. After administration of anesthesia, a ventral midline incision is made to gain access to the animal's abdominal cavity. The jejunum and ileum are exposed, and incisions are made to manually place the devices and/or dosage forms being tested. After placement of the device and/or dosage form is complete, the intestinal incisions are closed, and the midline incision can also be temporarily closed. Also, access can be made for blood collection via the carotid artery or jugular vein. The animal can be kept under anesthesia for up to 4 hours to allow for blood collection, such as at 5 mins, 15 mins, 30 mins, 60 mins, 90 mins, and 2 hours after oral dosage form placement. Blood samples can also be collected prior to the surgical procedure. The percent bioavailability of the active agent provided with the devices and/or dosage forms is determined on the basis of the active agent levels detected in these blood samples. […]

Question: Which bioavailability does the source give for C[C@@H](O)[C@@H]1NC(=O)[C@H](CCCCN)NC(=O)[C@@H](Cc2c[nH]c3ccccc23)NC(=O)[C@H](Cc2ccccc2)NC(=O)[C@@H](NC(=O)[C@H](N)Cc2ccccc2)CSSC[C@@H](C(=O)N[C@H](CO)[C@@H](C)O)NC1=O [octreotide solution, octreotide] here?
Answer: The bioavailability was roughly 1%.
